Data from patent US12226410B2, “Methods for enhancing cellular clearance of pathological molecules via activation of the cellular protein ykt6” (NORTHWESTERN UNIVERSITY, priority 2019, dated 2025).

Tests used:
TH protein = assay: FTI treatment of DASYN53 mice: midbrain TH levels; type: in vivo; details: i.p. 0.9 mg/kg, 26d
Excerpt: FIGS. 8A, 8B, 8C, 8D, 8E, and 8F. FTI treatment enhances GCase activity and reduces pathological a-syn in transgenic mice. 8A) GCase activity in the midbrain of FTI (LNK-754)-treated DASYN53 mice (treated as in FIG. 7) (n=4, veh; n=5, FTI). 8B & 8C) Quantification of soluble and insoluble a-syn from midbrains of FTI-treated DASYN53 mice normalized to total protein (CBB). Syn211 is selective for human (hu) a-syn; C20 and syn303 detect mouse (ms) and hu a-syn, (n=3, nTg+Veh; n=4, DASYN53+veh; n=5 DASYN53+FTI). 8D) Midbrain TH levels were quantified by western blot of FTI-treated DASYN53 mice (n=3). 8E) Body weight of FTI-treated DASYN53 mice (n=9, nTg+Veh; n=7, DASYN53+veh; n=7 DASYN53+FTI). 8F) Rotarod test of FTI-treated DASYN53 mice (n=12, nTg+Veh; n=7, DASYN53+veh; n=7 DASYN53+FTI). Values are the mean+/−SEM. *p<0.05, **p<0.01, and *** p<0.001. Student's t-test, panel A; ANOVA with Tukey's posthoc test, panels B-F.
Treatment of C57Bl/6 and DASYN53 mice with farnesyltransferase inhibitors. 3 mo old C57BL6 mice were i.p. injected daily with 0.9 mg/kg LNK-754 that was formulated in a vehicle of 0.5% sodium carboxymethylcellulose and filtered before use for 14 days. DASYN53 mice were i.p. injected daily with 0.9 mg/kg LNK-754 as above. Mice were perfused with PBS and the brains (cortex) were rapidly dissected and frozen until analysis. […]

GCase = assay: FTI treatment of wild-type mice: GCase maturation and activity in cortex; type: in vivo; details: daily i.p. 0.9 mg/kg, 14 days
Procedure: FIGS. 15A, 15B, 15C, 15D, 15E, and 15F. FTI treatment of wild-type mice enhances ykt6 SNARE complexes, lysosomal activity, and reduces a-syn. 15A) Wild-type mice (C57Bl/6) were i.p. injected daily with FTI for 14 days at 0.9 mg/kg and compared to vehicle injected mice. Extracts from the cortex were analyzed for cytosolic (cyt) and membrane (mem) distribution of ykt6 (veh, n=5; FTI, n=6). 15B) Representative gel filtration/western blot analysis of cortical extracts of veh or FTI injected wild-type mice. Inputs are shown on the left. NSE indicates equal column loading. 15C) Quantification of ykt6 and STX5 complexes (ca. 120A) from gel filtration analysis in C (n=4 mice). Fraction 1 corresponds to complexes at 120A, while fractions 7-9 correspond to ykt6 monomers at 22-14 A. 15D) The levels of post ER (endo H resistant) GCase were analyzed by western blot and post ER/ER ratios were quantified from the cortex of FTI treated mice (veh, n=5; FTI, n=6). 15E) GCase activity was assessed in cortical lysates and normalized to total protein (veh, n=4; FTI, n=6). 15F) a-Syn levels were quantified from cytosolic or membrane isolated fractions from the cortex of wild-type FTI treated mice (veh, n=4; FTI, n=6). For all quantifications, values are the mean+/−SEM, *p<0.05.
Analysis of post-ER GCase. […]

[1] = Pharmacokinetic studies of the FTI; type: in vivo, mice; details: single oral dose; data not shown
Excerpt: Farnesyltransferase inhibition activates ykt6 in vivo and reduces pathological aggregation in mice. We next sought to determine if FTIs could activate ykt6 in the brains of mice by first testing their effect in wild-type animals.

lysosomal GCase = assay: Live cell GCase activity assay in A53T iPSn; type: cell-based, human
Procedure: FIGS. 6A, 6B, 6C, 6D, 6E, 6F, and 6G. FTIs enhance lysosomal GCase activity and reduce pathological a-syn by blocking ykt6 farnesylation. 6A) GCase activity in FTI-treated A53T iPSn at d80 (LNK-754 5 nM, 5d). 6B) GCase activity in FTI-treated A53T iPSn expressing empty vector (vect) or ykt6-CS (n=4). 6C) Lysosomal GCase activity was assessed in FTI-treated SHSY5Y cells transfected with scrambled or ykt6 shRNA (KD) (n=3). 6D) Quantification of Triton X-100 soluble (T-sol) a-syn by western blot from FTI-treated A53T iPSn (5 nM, 7d). *, non-specific band. (n=3). 6E) Quantification of insoluble a-syn from A53T iPSn as in D (n=3). 6F) Insoluble a-syn in FTI-treated H4 cells (5 nM, 5 days) transfected with either scrambled or ykt6 shRNA (n=6). 6G) Neuron viability was assessed in FTI-treated A53T iPSn (5 nM, 14d from d86-d100) by quantification of neurofilament protein. Right, neuron viability in FTI-treated A53T iPSn expressing empty vector or ykt6-CS (n=4). Values are the mean+/−SEM, *p<0.05, **p<0.01, ***p<0.001.
Live cell GCase activity assay. […] Fluorescent signal was quantified over time and normalized to total cell volume using CellTag 700 (Licor) or lysosomal mass by using cascade dextran blue (#D-1976, Thermofisher). […]
Treatment of cultures with farnesyltransferase inhibitors. […] Cultures were harvested and analyzed as described in the above sections.

C#Cc1cccc(-c2cc(=O)n(C)c3ccc([C@](O)(c4ccc(Cl)cc4)c4cncn4C)cc23)c1 [LNK-754]
TH levels in midbrain (TH protein): partially restore TH levels | mature, endo H resistant GCase in brain (GCase; cortex): elevated levels | GCase enzyme activity in brain (GCase; cortical lysates): higher enzyme activity | blood-brain-barrier crossing [1]: could rapidly cross the blood-brain-barrier | time to clearance from plasma [1]: ≤ 20 h | lysosomal GCase activity (lysosomal GCase; 1 nM): partially rescued | lysosomal GCase activity (lysosomal GCase; 4 and 10 nM): near-complete rescue
